Article PMC7729398, “Unravelling the intricate cooperativity of subunit gating in P2X2 ion channels” (Scientific Reports, 2020)
Where a chain is given by its changes, count along the chain named.

Tests used:
P2X2 receptor H319K = target: T1, P2X2 receptor H319K (Rattus norvegicus, UniProt P49653, H319K); experiment: whole-cell and single-channel (cell-attached) patch-clamp, fast ATP jumps, global kinetic fit; type: cell-based
T1 construct: gene P2rx2; rat P2X2 H319K in HEK293 (Flp-In T-REx 293) cells
T1 sequence (P49653 1-472 H319K): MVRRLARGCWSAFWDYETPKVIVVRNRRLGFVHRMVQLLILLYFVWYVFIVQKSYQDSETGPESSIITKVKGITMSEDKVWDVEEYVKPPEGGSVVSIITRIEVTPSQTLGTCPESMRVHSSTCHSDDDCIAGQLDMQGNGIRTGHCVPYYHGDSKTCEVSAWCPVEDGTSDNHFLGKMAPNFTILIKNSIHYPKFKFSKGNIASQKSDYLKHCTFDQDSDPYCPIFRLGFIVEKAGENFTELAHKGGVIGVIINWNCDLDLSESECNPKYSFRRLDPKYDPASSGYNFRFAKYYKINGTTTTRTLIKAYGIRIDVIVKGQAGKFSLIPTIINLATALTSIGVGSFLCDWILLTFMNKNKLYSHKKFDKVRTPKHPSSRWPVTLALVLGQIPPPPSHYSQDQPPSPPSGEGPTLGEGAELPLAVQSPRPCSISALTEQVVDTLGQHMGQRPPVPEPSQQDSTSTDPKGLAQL

P2X2 receptor = target: T2, P2X2 receptor (Rattus norvegicus, UniProt P49653); experiment: as above; type: cell-based
T2 construct: gene P2rx2; wild type rat P2X2 in HEK293 (Flp-In T-REx 293) cells
T2 sequence (P49653 1-472): T1 sequence (P49653 1-472 H319K) with K319H

## Nc1ncnc2c1ncn2[C@@H]1O[C@H](COP(=O)(O)OP(=O)(O)OP(=O)(O)O)[C@@H](O)[C@H]1O [ATP]
P2X2 receptor H319K
  EC50: ~ 30 nM
P2X2 receptor
  EC50: 1200 nM
